Results: patent US20110237640A1, “PYRAZOLE PHENYL DERIVATIVES” (priority 2004, published 2011)

Assays:
[1] = biological target: T1, GST-PPARα-LBD fusion protein (Homo sapiens, UniProt Q07869); assay: PPARα radioligand binding assay (SPA)
T1 construct: PPARα (aa 167 to 469); made in house; host or cells: E. coli BL21(pLysS)
T1 sequence (Q07869 167-468 limits assumed): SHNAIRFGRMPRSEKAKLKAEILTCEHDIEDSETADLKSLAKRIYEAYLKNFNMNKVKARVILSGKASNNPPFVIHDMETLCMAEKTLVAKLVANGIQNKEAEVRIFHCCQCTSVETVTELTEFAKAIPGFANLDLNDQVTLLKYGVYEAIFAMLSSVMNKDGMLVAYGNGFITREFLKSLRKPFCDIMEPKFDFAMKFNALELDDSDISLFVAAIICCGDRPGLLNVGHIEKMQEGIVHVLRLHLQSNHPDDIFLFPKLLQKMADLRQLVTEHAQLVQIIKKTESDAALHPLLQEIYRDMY
Source text: (§1) Full-length cDNA clones for humans PPARδ and PPARα and mouse PPARγ were obtained by RT-PCR from human adipose and mouse liver cRNA, respectively, cloned into plasmid vectors and verified by DNA sequencing. Bacterial and mammalian expression vectors were constructed to produce glutathione-s-transferase (GST) and Gal4 DNA binding domain proteins fused to the ligand binding domains (LBD) of PPARδ (aa 139 to 442), PPARγ (aa 174 to 476) and PPARα (aa 167 to 469). To accomplish this, the portions of the cloned sequences encoding the LBDs were amplified from the full-length clones by PCR and then subcloned into the plasmid vectors. Final clones were verified by DNA sequence analysis.
(§2) Induction, expression, and purification of GST-LBD fusion proteins were performed in E. coli strain BL21(pLysS) cells by standard methods (Ref: Current Protocols in Molecular Biology, Wiley Press, edited by Ausubel et al.).
(§3) PPARαreceptor binding was assayed in TKE50 (50 mM Tris-HCl, pH 8, 50 mM KCl, 2 mM EDTA, 0.1 mg/ml fatty acid-free BSA and 10 mM DTT). […] All binding assays were performed in 96 well plates and the amount of bound ligand measured on a Packard TopCount using OptiPlates (Packard). Nonspecific binding was determined in the presence of 10^−4 M unlabelled compound. […]

[2] = biological target: T2, GST-PPARγ-LBD fusion protein (Mus musculus, UniProt P37238); assay: PPARγ radioligand binding assay (SPA)
T2 construct: PPARγ (aa 174 to 476); made in house; host or cells: E. coli BL21(pLysS)
T2 sequence (P37238 204-505): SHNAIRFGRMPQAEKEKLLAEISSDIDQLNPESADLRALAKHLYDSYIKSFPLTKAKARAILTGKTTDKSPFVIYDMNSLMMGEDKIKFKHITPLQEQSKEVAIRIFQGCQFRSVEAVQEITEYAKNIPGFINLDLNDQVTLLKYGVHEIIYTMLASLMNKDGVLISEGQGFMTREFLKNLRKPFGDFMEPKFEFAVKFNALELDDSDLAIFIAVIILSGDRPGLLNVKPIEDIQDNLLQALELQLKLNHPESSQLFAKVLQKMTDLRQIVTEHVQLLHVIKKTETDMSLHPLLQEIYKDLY
Source text: as §1, §2
as §3, with “PPARγ receptor” for “PPARαreceptor”

[3] = biological target: T3, PPARδ receptor (GST-PPAR-LBD fusion protein) (Homo sapiens, UniProt Q03181); assay: PPARδ radioligand binding assay (SPA)
T3 construct: PPARδ (aa 139 to 442); made in house; host or cells: E. coli BL21(pLysS)
T3 sequence (Q03181 139-441 limits assumed): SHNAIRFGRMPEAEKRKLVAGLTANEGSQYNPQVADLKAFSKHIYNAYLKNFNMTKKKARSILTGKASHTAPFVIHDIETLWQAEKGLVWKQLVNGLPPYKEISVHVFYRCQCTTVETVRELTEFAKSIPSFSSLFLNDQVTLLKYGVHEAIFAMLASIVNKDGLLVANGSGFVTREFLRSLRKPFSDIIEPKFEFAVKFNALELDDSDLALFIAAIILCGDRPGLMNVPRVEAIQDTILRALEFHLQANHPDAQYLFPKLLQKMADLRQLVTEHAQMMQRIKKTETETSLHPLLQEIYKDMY
Source text: as §1, §2
PPARδ receptor binding was assayed in HNM10 (50 mM Hepes, pH 7.4, 10 mM NaCl, 5 mM MgCl2, 0.15 mg/ml fatty acid-free BSA and 15 mM DTT). […] Radioligand was added and the reaction incubated at RT for 1 h and scintillation proximity counting performed in the presence of test compounds was determined. All binding assays were performed in 96 well plates and the amount of bound ligand was measured on a Packard TopCount using OptiPlates (Packard). […]

[4] = biological target: T4, pFA-PPARα-LBD in BHK21 cells (Homo sapiens, UniProt Q07869); assay: Luciferase transcriptional reporter gene assay (transactivation), PPARα; assay type: cell-based; conditions: for EC50: 24 hours with compound; for PPARα maximal activation (% of reference compound): reference PPARα compound set to 100%
T4 construct: PPARα (aa 167 to 469); expressed in transfected cells; host or cells: BHK21 (ATCC CCL10)
T4 sequence (Q07869 167-468 limits assumed): T1 sequence (Q07869 167-468 limits assumed)
Source text: as §1
(§4) Baby hamster kidney cells (BHK21 ATCC CCL10) were grown in DMEM medium containing 10% FBS at 37° C. in a […]:5% CO2 atmosphere. Cells were seeded in 6 well plates at a density of 10^5 cells/well and then batch-transfected with either the pFA-PPARδ-LBD, pFA-PPARγ-LBD or pFA-PPARα-LBD expression plasmids plus a reporter plasmid (to monitor transfection efficiency). […] Six hours following transfection, the cells were harvested by trypsinization and seeded in 96 well plates at a density of 10^4 cells/well. After 24 hours the medium was removed and replaced with 100 ul of phenol red-free medium containing the corresponding test compounds or control ligands (at a final DMSO concentration of 0.1%). Following incubation of the cells for 24 hours with compounds, 50 μl of the supernatant was discarded and then 50 μl of Luciferase Constant—Light Reagent (Roche Molecular Biochemicals) was added to lyse the cells and initiate the luciferase reaction. Luminescence for luciferase was measured in a Packard TopCount. Transcriptional activation in the presence of a test substance was expressed as fold-activation over cells incubated in the absence of the substance. The signals were normalized against plate-specific controls (DMSO alone) and the fold-stimulation of luciferase activity observed with specific and selective PPARα((2(S)-2-(2-benzoyl-phenylamino)-3-{4-[2-(5-methyl-2-phenyl-oxazol-4-yl)-ethoxy]-phenyl}-propionic acid), PPARγ (Rosiglitazone) and PPARδ ({2-methyl-4-[4-methyl-2-(4-trifluoromethyl-phenyl)-thiazol-5-ylmethylsulfanyl]-phenoxy}-acetic acid) reference compounds was set to 100%. EC50 values were calculated using the XLfit program (ID Business Solutions Ltd. UK).

[5] = biological target: T5, pFA-PPARδ-LBD in BHK21 cells (Homo sapiens, UniProt Q03181); assay: Luciferase transcriptional reporter gene assay (transactivation), PPARδ; assay type: cell-based; conditions: for EC50: 24 hours with compound; for PPARδ efficacy relative to reference compound: reference PPARδ compound set to 100%
T5 construct: PPARδ (aa 139 to 442); expressed in transfected cells; host or cells: BHK21 (ATCC CCL10)
T5 sequence (Q03181 139-441 limits assumed): T3 sequence (Q03181 139-441 limits assumed)
Source text: as §1, §4

## Cc1cc(OCc2cc(-c3ccc(OC(F)(F)F)cc3)nn2CC(F)(F)F)ccc1OC(C)(C)C(=O)O [Example 6, 2-Methyl-2-{2-methyl-4-[2-(2,2,2-trifluoro-ethyl)-5-(4-trifluoromethoxy-phenyl)-2H-pyrazol-3-ylmethoxy]-phenoxy}-propionic acid]
[1]
  IC50: 212 nM
[2]
  IC50: ≥ 10000 nM
[3]
  IC50: 222 nM
[4]
  EC50: 160 nM
  PPARα maximal activation (% of reference compound): 120%
[5]
  EC50: 96 nM
  PPARδ efficacy relative to reference compound: 140%

## Cc1cc(OCc2cc(-c3ccc(OC(F)(F)F)cc3)nn2C)ccc1OC(C)(C)C(=O)O [Example 1, 2-Methyl-2-{2-methyl-4-[2-methyl-5-(4-trifluoromethoxy-phenyl)-2H-pyrazol-3-ylmethoxy]-phenoxy}-propionic acid]
[1]
  IC50: 166 nM
[2]
  IC50: ≥ 10000 nM
[3]
  IC50: 144 nM
[4]
  EC50: 380 nM
  PPARα maximal activation (% of reference compound): 100%
[5]
  EC50: 200 nM
  PPARδ efficacy relative to reference compound: 59%
